Tested on: Aspergillus oryzae
Procedure: The dose of iron was calculated as a concentration of iron elements rather than the concentration of salt; to enable comparison with the iron content in the fungal biomass. All fungal samples were thoroughly washed with deionizer water prior to testing by the ICP-OES method.
Other inorganic minerals such as selenium and zinc have been used to produce selenium or zinc enriched yeast, but the use of filamentous fungi has not been reported. […] A similar process (FIG. 2) was used for growing Aspergillus oryzae fortified with either sodium selenite or zinc sulfate. The dose of either inorganic salt was calculated as a concentration of the elements rather than the concentration of salt to enable comparison with the mineral content in the fungal biomass.

SMILES | toxicity to Aspergillus oryzae (Fe3+ 1-200 mg/L in corn-ethanol Syrup) | effect on fungal yield
O=S(=O)([O-])[O-].O=S(=O)([O-])[O-].O=S(=O)([O-])[O-].[Fe+3].[Fe+3] [ferric sulfate, Ferric sulfate (Fe2(SO4)3.2H2O)] | not toxic | 
O=S(=O)([O-])[O-].[Zn+2] [Zinc, zinc sulfate] |  | increased fungal yield

— patent US11478519B2, “Nutritional supplement containing iron” (CURA GLOBAL HEALTH (BVI) LIMITED, priority 2012, dated 2022)
